The nature of data set [1]: Plasma stability, human plasma. In kind it is in vitro ADME.
The subject of data set [2] is human red blood cells (hRBC). The data set can be described thus: Hemolysis. In kind it is cell-based. The note with it: 100.
In data set [3] the test system is Pseudomonas aeruginosa P1021913. The format is cell-based. The note with it: P1021913. Summed up:
(§1)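 Antimicrobial values come from two-fold serial dilutions of peptide in Mueller-Hinton broth plus 0.02% BSA, combined with an equal volume of inoculum at approximately 10^6 CFU/ml. The approach followed standard NCCLS broth microdilution, slightly modified.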

Data set [4] deals with Pseudomonas aeruginosa P8191900. In kind it is cell-based. The settings on record: P8191900. An outline of the steps:
as §1

The subject of data set [5] is Pseudomonas aeruginosa IMP 1 Livermore 3140. The format is cell-based. The settings on record: IMP 1 Livermore 3140. Summed up: as §1
The subject of data set [6] is Pseudomonas aeruginosa P1021903. In kind it is cell-based. The note with it: P1021903. An outline of the steps: as §1
The test system of the next data set is P. aeruginosa ATCC 27853. The format is cell-based, Pseudomonas aeruginosa. The settings on record: ATCC 27853. Summed up:
as §1

The next data set relates to HELA cells (Acc57). The data set can be described thus: Cytotoxicity assay, MTT reduction (LC 50, GI 50). In kind it is cell-based. Summed up: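 HeLa cells seeded at 7.0×10^3 cells/well, grown 24 h, then exposed to peptides at 12.5, 25 and 50 μM in triplicate for 48 h at 37 °C; MTT (0.5 mg/ml, 2 h), A595 read. Percent growth was taken relative to time-zero plates; LC50 and GI50 were interpolated by linear trend at −50% and 50% growth.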

Data set [7] can be described thus: Plasma stability, rat plasma. The format is in vitro ADME.

Values after ≈ are worked out from the molar mass of the structure shown. Non-standard residues stand in square brackets, D forms with d. Residues, ends and D or L forms follow the SMILES beside them. hSer = N[C@@H](CCO)C(=O)O; Dab = NCC[C@H](N)C(=O)O

On to `CC(C)[C@@H]1NC(=O)[C@H](Cc2c[nH]c3ccccc23)NC(=O)[C@H]([C@@H](C)O)NC(=O)[C@@H]2CCCN2C(=O)[C@H]2CCCN2C(=O)[C@H](CCN)NC(=O)[C@H](C)NC(=O)[C@H](CCN)NC(=O)[C@H](CCN)NC(=O)[C@H](Cc2c[nH]c3ccccc23)NC(=O)[C@H](CCN)NC(=O)[C@H](CCN)NC(=O)[C@H](CCCCN)NC(=O)[C@H](CCN)NC1=O` [Example 32] (cyclo(TWV[Dab]K[Dab][Dab]W[Dab][Dab]A[Dab][dP]P)), for which the “Stability human Plasma t1/2” value in [1] was 5 h. Moreover, the “Hemolysis at 100 μg/ml” value in [2] is listed as 0%. The “MIC P. aeruginosa P1021913” value in [3] is 0.10 µg/mL (≈ 0.0638 µM). Moreover, the “MIC P. aeruginosa P8191900” value in data set [4] was determined as 0.05 µg/mL (≈ 0.0319 µM). The “MIC P. aeruginosa IMP1 Livermore 3140” value in [5] stood at 0.22 µg/mL (≈ 0.14 µM). Also, in [6], the “MIC P. aeruginosa P1021903” value stood at 0.05 µg/mL (≈ 0.0319 µM). Further, the “MIC P. aeruginosa ATCC 27853” value in the data set with P. aeruginosa ATCC 27853 stood at 0.02 µg/mL (≈ 0.0128 µM). This compound gave a Cytotoxicity GI50 Hela cells with HELA cells (Acc57) of 50 µM. In data set [7], the “Stability rat Plasma t1/2” value worked out at 5 h. Also, in the data set with P. aeruginosa, the “Average MIC” value was determined as 0.09 µg/mL.

`CC[C@H](C)[C@@H]1NC(=O)[C@H](Cc2c[nH]c3ccccc23)NC(=O)[C@H]([C@@H](C)O)NC(=O)[C@@H]2CCCN2C(=O)[C@H]2CCCN2C(=O)[C@H](CCN)NC(=O)[C@H](C)NC(=O)[C@H](CCN)NC(=O)[C@H](CCN)NC(=O)[C@H](Cc2c[nH]c3ccccc23)NC(=O)[C@H](CCN)NC(=O)[C@H](CCCCN)NC(=O)[C@H](CCCCN)NC(=O)[C@H](CCN)NC1=O` [Example 25] (cyclo(TWI[Dab]KK[Dab]W[Dab][Dab]A[Dab][dP]P)): the “Stability human Plasma t1/2” value in data set [1] is 5 h. For the same compound, in [2], the “Hemolysis at 100 μg/ml” value is listed as 0.1%. The “MIC P. aeruginosa P1021913” value in data set [3] amounted to 0.13 µg/mL (≈ 0.0808 µM). Also, the “MIC P. aeruginosa P8191900” value in [4] was determined as 0.10 µg/mL (≈ 0.0622 µM). In addition, the “MIC P. aeruginosa IMP1 Livermore 3140” value in data set [5] was determined as 0.24 µg/mL (≈ 0.149 µM). The “MIC P. aeruginosa P1021903” value in [6] is 0.05 µg/mL (≈ 0.0311 µM). The “MIC P. aeruginosa ATCC 27853” value in the data set on P. aeruginosa ATCC 27853 amounted to 0.05 µg/mL (≈ 0.0311 µM). This compound also displayed a Cytotoxicity GI50 Hela cells with HELA cells (Acc57) of 50 µM. Further, the “Stability rat Plasma t1/2” value in data set [7] came to 5 h. Moreover, in the data set with P. aeruginosa, the “Average MIC” value was found to be 0.11 µg/mL.

Consider `CC[C@H](C)[C@@H]1NC(=O)[C@H](Cc2c[nH]c3ccccc23)NC(=O)[C@H]([C@@H](C)O)NC(=O)[C@@H]2CCCN2C(=O)[C@H]2CCCN2C(=O)[C@H](CCN)NC(=O)[C@H](C)NC(=O)[C@H](CCN)NC(=O)[C@H](CCN)NC(=O)[C@H](Cc2c[nH]c3ccccc23)NC(=O)[C@H](CCN)NC(=O)[C@H](CCN)NC(=O)[C@H](CCCCN)NC(=O)[C@H](CCC(N)=O)NC1=O` [Example 29] (cyclo(TWIQK[Dab][Dab]W[Dab][Dab]A[Dab][dP]P)), for which the “Stability human Plasma t1/2” value in data set [1] came to 5 h. The “Hemolysis at 100 μg/ml” value in data set [2] is given as 0.5%. Besides, the “MIC P. aeruginosa P1021913” value in data set [3] amounted to 0.21 µg/mL (≈ 0.131 µM). Besides, the “MIC P. aeruginosa P8191900” value in data set [4] was found to be 0.13 µg/mL (≈ 0.0808 µM). In addition, the “MIC P. aeruginosa IMP1 Livermore 3140” value in data set [5] came out at 0.40 µg/mL (≈ 0.249 µM). Further, the “MIC P. aeruginosa P1021903” value in [6] stood at 0.13 µg/mL (≈ 0.0808 µM). In addition, the “MIC P. aeruginosa ATCC 27853” value in the data set with P. aeruginosa ATCC 27853 came out at 0.09 µg/mL (≈ 0.0559 µM). The Cytotoxicity GI50 Hela cells with HELA cells (Acc57) was found to be 50 µM. In addition, the “Stability rat Plasma t1/2” value in data set [7] was 5 h. Besides, the “Average MIC” value in the data set on P. aeruginosa was 0.19 µg/mL.

With `CC[C@H](C)[C@@H]1NC(=O)[C@H](Cc2c[nH]c3ccccc23)NC(=O)[C@H]([C@@H](C)O)NC(=O)[C@@H]2CCCN2C(=O)[C@H]2CCCN2C(=O)[C@H](CCN)NC(=O)[C@H](CCO)NC(=O)[C@H](CCN)NC(=O)[C@H](CCN)NC(=O)[C@H](Cc2c[nH]c3ccccc23)NC(=O)[C@H](CCN)NC(=O)[C@H](CCN)NC(=O)[C@H](CCCCN)NC(=O)[C@H](CCN)NC1=O` [Example 35] (cyclo(TWI[Dab]K[Dab][Dab]W[Dab][Dab][hSer][Dab][dP]P)), the “Stability human Plasma t1/2” value in [1] was found to be 5 h. Moreover, the “Hemolysis at 100 μg/ml” value in data set [2] turned out to be 0.2%. Further, in [3], the “MIC P. aeruginosa P1021913” value worked out at 0.24 µg/mL (≈ 0.149 µM). For the same compound, the “MIC P. aeruginosa P8191900” value in [4] turned out to be 0.22 µg/mL (≈ 0.137 µM). Besides, the “MIC P. aeruginosa IMP1 Livermore 3140” value in data set [5] turned out to be 0.31 µg/mL (≈ 0.192 µM). Further, the “MIC P. aeruginosa P1021903” value in data set [6] was found to be 0.10 µg/mL (≈ 0.0621 µM). The “MIC P. aeruginosa ATCC 27853” value against P. aeruginosa ATCC 27853 is 0.05 µg/mL (≈ 0.031 µM). The same compound gave a Cytotoxicity GI50 Hela cells with HELA cells (Acc57) of 48 µM. Further, the “Stability rat Plasma t1/2” value in data set [7] is 5 h. In addition, the “Average MIC” value in the data set with P. aeruginosa was found to be 0.18 µg/mL.

The values are drawn from patent publication US9521846B2, “Template-fixed peptidomimetics with antimicrobial activity” (priority 2006, dated 2016).
